In one assay the test system is p62-dependent mitophagy. The experiment in a line: Luciferase-p62 clearance assay, stated for HDFs. In kind it is cell-based, human. Conditions: 10 μM; HDFs as printed. Here is the method: FIGS. 15A-15C show hydroxycinnamic acids (HCAs) tested in mitophagy assays in primary HDFs. […] 80,000 mixed aged Fibroblasts expressing the Su9-Halo-GFP reporter were treated for 48 h with the indicated HCAs. A change in the reporter excitation occurs because the GFP tag is quenched in the lysosome environment, indicating mitophagy.
To identify p62-dependent materials which increase mitophagy, a Luciferase-p62 Assay was established. This method provides an approach to measure the ability of a material to modulate p62-dependent mitophagy by using an inducible firefly luciferase-p62 (Fluc-p62) reporter cell system. In this assay, p62 levels are driven by doxycycline treatment. After levels increased, expression of Fluc-p62 is turned off by removal of doxycycline, materials are then added and assessed for how they affect clearance of Fluc-p62 protein, which is proportionate to cellular mitophagy rates (Kelly et al.). […]
Test materials including bioactive materials were screened in mouse embryonic fibroblasts (MEFs, Harada et al.) expressing the TET-inducible p62-fluc construct as previously described (Brown et al.). […] Subsequently, cells were treated with test materials for 48 hours in normal growth medium and analysed using ONE-Glo™+Tox Luciferase Reporter and Cell Viability Assay (Promega) by following the manufacturer's protocol.

In assay [1] the test system is human dermal fibroblasts (HDFs). Kind of assay: Seahorse analysis, ATP production normalized to MitoTracker density. The assay is classed as cell-based. Conditions: HDFs from aged donors; 30 μM, 7 h. Here is the method:
The Seahorse XF Cell Mito Stress Test Kit (Agilent) was used to measure oxygen consumption rates in adult dermal fibroblasts. One day prior to the assay cells were seeded at either 4000 per well or 3000 per well. Where indicated, fibroblast plates were subjected to 20Gy IR 2 h before assay. STOCKIN ([…]) or vehicle (DMSO) treatments were performed 7 h before Seahorse assays. HDFs were stained with 100 nM Mitotracker Green for mitochondrial density measurement. The Mito Stress Test was performed as per manufacturer's guidelines on a Seahorse XF96 Extracellular Flux analyser using previously optimized conditions. Following assay completion, cells were fixed in 4% PFA for 20 minutes. PFA was then removed, and cells were washed twice with PBS. Following fixation, cells were stained with Hoescht nucleic acid stain (Invitrogen) for 10 min before being washed twice in PBS. Fluorescence was subsequently measured using the PHERAstar FSX plate reader (BMG LABTECH) at 350/460 nm for normalization purposes. Following normalization, OCR measurements were interpreted from data generated from the Agilent Seahorse Wave software version 2.6.3.5. Basal respiration data in unstressed conditions is presented. OCR measurements were further normalised to mitochondrial density to obtain ATP production (pmol/min/mitochondria).

Consider `CC(=O)Oc1ccc(N2C(=O)C3C(Cc4ccccc4)NC4(C(=O)Nc5c4ccc(Cl)c5C)C3C2=O)cc1` (centres unmarked) [STOCKIN-57543], for which the “increase p62-dependent mitophagy levels over baseline” value with p62-dependent mitophagy was determined as 33%. Further, the “mitochondrial function (ATP production per cell normalized to MitoTracker density)” value in assay [1] is reported as “restoring”.
